This is an account of results in patent publication US20130165771A1 (priority 2011, published 2013).

In data set [1] the test system is eye with CNV complicated with proliferated retinopathy and atrophy of choroidal circulation. The experiment in a line: Comparison of Na-fluorescein, ICG and FITC-dextran fundus angiography on the eye with proliferative CNV (Example 9, Table 1). The class given is in vivo, rabbit. Conditions: for morphological detail of the CNV, proliferated retinopathy and atrophy of choroidal circulation on the angiogram: Dutch-belted rabbit, same eye, Na-fluorescein 5 mg/kg, ICG 2.5 mg/kg, FITC-dextran 70 kDa 2.5 mg/kg i.v.; for Clarity of angiography / Duration: Choroidal neovascularization / Duration: Normal Choroidal vasculatures / Duration: Normal retinal vessels / Duration: Retinal neovascularization / Neovascularization complex: Table 1. From the text:
Materials and Methods: the choroidal neovascularization in the eye of Dutch-belted rabbit was induced by sub-retinal injection of vascular growth factors (VGF). The proliferated retinopathy of the choroidal neovascularization membrane and the atrophy of choroidal circulation were the complications of the CNV, occurring at the late stage of the disease. […] The fundus angiograms of IGC were obtained using the fundus image system (Topcon 50 VT) at wavelength of 800 nm.

The subject of data set [2] is eye with choroidal neovascularization (CNV). The experiment in a line: FITC-dextran fundus angiography on the eye with choroidal neovascularization (Example 4). Conditions: pigmented rabbit; CNV induced by sub-retinal vascular growth factors; FITC-dextran 70 kDa, 25 mg/ml, 0.3 ml i.v. The class given is in vivo. As to the method: Materials and Methods: The choroidal neovascularization (CNV) was induced by sub-retinal injection of vascular growth factors in the eye of pigmented rabbit. […] The volume of 0.3 ml of the solution was injected through marginal vein of the rabbit.

Data set [3] relates to eye with retinal detachment. The experiment in a line: FITC-dextran fundus angiography in the eye with retinal detachment (Example 3). The settings on record: pigmented rabbit; detachment induced by sub-retinal Healon; FITC-dextran 70 kDa, 25 mg/ml, 0.3 ml i.v. The class given is in vivo. As to the method:
Materials and Methods: The retinal detachment was induced by sub-retinal injection of Healon in the eye of pigmented rabbit. […] The volume of 0.3 ml of the solution was injected intravenously through the marginal vein of the rabbit.

Data set [4] concerns retinal vasculature and choroidal vasculature. Nature of the data set: FITC-dextran fundus angiography in normal rabbit eyes (Example 1). The class given is in vivo. Conditions: naive rabbit; FITC-dextran 70 kDa, 25 mg/ml, 0.3 ml intravenously. From the text:
Materials and Methods: The naive rabbits with bodyweight of 1.8-2.5 kilograms were used for this test.

For data set [5], the system named is eye with choroidal neovascularization complicated with retinal detachment. Nature of the data set: Comparison on the eye with CNV complicated with retinal detachment (Example 7). It is filed as in vivo. The settings on record: rabbit; Na-fluorescein 5 mg/kg i.v.; FITC-dextran 70 kDa 2.5 mg/kg i.v.; same rabbit. As to the method:
Materials and Methods: the choroidal neovascularization in the eye of rabbit was induced by sub-retinal injection of vascular growth factors (VGF). The complicated retinal detachment in the eye was caused by leakage of blood from the choroidal newly grown blood vessels and accumulated in the space of the sub-retinal between the detached retinal and the pigmented layer. […] The Na-fluorescence fundus angiography and the FITC-dextran fundus angiography were performed on the same rabbit with one-day interval between these two fundus angiographies.

The test system of another data set is choroidal vasculature. Nature of the data set: Effective image duration of FITC-dextran fundus angiography in rabbit (Example 2). It is filed as in vivo. Conditions: Dutch Belted rabbit, single intravenous injection of FITC-dextran 70 kDa, 25 mg/ml, 0.3 ml. The method, then: The volume of 0.3 ml of the solution was injected through the marginal vein of a Dutch Belted rabbit. […] The angiograms of choroidal vasculature were captured using a regular fluorescence fundus image system (Topcon 50 VT).

For data set [6], the system named is eyes with choroidal neovascularization (CNV). Nature of the data set: Comparison of FITC-dextran with Na-fluorescein fundus angiography on eyes with CNV (Example 6). The class given is in vivo. Conditions: rabbit CNV; Na-fluorescein 5 mg/kg i.v.; FITC-dextran 70 kDa 2.5 mg/kg i.v. From the text:
Materials and Methods: The choroidal neovascularization (CNV) in rabbit eye was induced by sub-retinal injection of vascular growth factors (VGF).

Data set [7] relates to eye with choroidal neovascularization complicated with sub-retinal hemorrhage. The experiment in a line: Comparison on the eye with CNV complicated with sub-retinal hemorrhage (Example 8). It is filed as in vivo. The settings on record: rabbit; Na-fluorescein 5 mg/kg i.v.; FITC-dextran 70 kDa 2.5 mg/kg i.v.; same rabbit. As to the method: Materials and Methods: the choroidal neovascularization in the rabbit eye was induced by sub-retinal injection of vascular growth factors (VGF). The sub-retinal hemorrhage was caused by the pathological changes of the newly grown blood vessels underneath of the retinal. […] The Na-fluorescence fundus angiography and the FITC-dextran fundus angiography, were performed on the same rabbit with one-day interval between these two fundus angiographies.

Another data set relates to serum proteins. Conditions: in the blood stream; cited from earlier work.
Another data set relates to fundus. Conditions: following intravenous injection of the dye; clinical practice; cited from earlier work.
Data set [8] relates to eye with retinal neovascularization. The experiment in a line: Comparison of FITC-dextran with Na-fluorescein fundus angiography on the eye with retinal neovascularization (Example 10). The settings on record: monkey eye with retinal neovascularization; following injection of the dye.
Experimental: Materials and Methods: Retinal neovascularization in the eye of the monkey was induced by sub-retinal administration of vascular growth factors (VGF). For Na-fluorescence fundus angiography, the 0.5% of Na-fluorescein solution was injected through the antecubital vein at the dose of 5 mg/kg of the body weight. […] The fundus angiograms were obtained using a regular fluorescence fundus system (Topcon 50 VT).
Data set [9] relates to retinal pigmental endothelial cells. Conditions: reported (Kodjikian, et al, 2005; Giuseppe, et al, 2008); cited from earlier work.

Regarding “fluorescein isothiocyanate dextran [FITC-Dextran]”, in data set [1], the “morphological detail of the CNV, proliferated retinopathy and atrophy of choroidal circulation on the angiogram” value is “able to visualize the newly grown blood vessels with details of the CNV”; the Clarity of angiography entry is recorded as “best”; the “Duration: Choroidal neovascularization” value was >1 h; the “Duration: Normal Choroidal vasculatures” value is >1 h. In addition, in [1], the “Duration: Normal retinal vessels” value was >1 h, the “Duration: Retinal neovascularization” value was >1 h and the Neovascularization complex result was “best”. For the same molecule, the “visualization of new blood vessels grown from choroidal” value in data set [2] was “able to visualize the new blood vessels grown from choroidal”. For the same molecule, in data set [3], the “quality of angiograms of the eye with retinal detachment” value was “super clear and high resolution angiograms”. Moreover, the “visualization of retinal vasculature and choroidal vasculature in a same fundus angiogram” value in data set [4] was “able to visualize both retinal vasculature and choroidal vasculature”. Besides, the “morphological detail of the CNV and the retinal detachment on the angiogram” value in data set [5] is “the morphological nature of the newly grown vasculature and the detachment of the retina were visualized”. The effective image duration result in the data set with choroidal vasculature was “up to 2 hours”. Besides, the “morphological detail of the CNV on the angiogram” value in data set [6] is listed as “detailed morphological information of the newly grown vasculature was revealed”. Besides, the “morphological detail of the CNV and the hemorrhage on the angiogram” value in [7] is “able to provide the morphological nature of the newly grown vasculature complicated with retinal hemorrhage”.
With `O=C([O-])c1ccccc1-c1c2ccc(=O)cc-2oc2cc([O-])ccc12.[Na+].[Na+]` [Na-Fluorescein, sodium fluorescein], in the data set with serum proteins, the “molecules bound to serum proteins” value was 70-80%. In data set [1], the “morphological detail of the CNV, proliferated retinopathy and atrophy of choroidal circulation on the angiogram” value is “without morphological details of the CNV”; the Clarity of angiography result was “good”; the Neovascularization complex result is reported as “poor”. Besides, in data set [1] (then leak out), the “Duration: Retinal neovascularization” value is ≤ 0.00278 h. In addition, in data set [1] (then watch out), the “Duration: Normal retinal vessels” value is listed as 2-5 minutes,. Besides, in the data set on fundus, the “best effective image duration” value was “about 5 minutes”. The “morphological detail of the CNV and the retinal detachment on the angiogram” value in [5] is “without the morphological details of the CNV and the detachment”. Besides, the effective image duration result in data set [8] is “about two”. For the same molecule, the “morphological detail of the CNV on the angiogram” value in data set [6] is “without the morphological detail of the CNV”. Further, the “morphological detail of the CNV and the hemorrhage on the angiogram” value in data set [7] was “without the morphological details of the CNV and the hemorrhage”.
As to `CC1(C)C(/C=C/C=C/C=C/C=C2\N(CCCCS(=O)(=O)O)c3ccc4ccccc4c3C2(C)C)=[N+](CCCCS(=O)(=O)[O-])c2ccc3ccccc3c21` [ICG, indocyanine green], in the data set on serum proteins, the “molecules bound to serum proteins” value is on record as 98%. Further, in [1], the “morphological detail of the CNV, proliferated retinopathy and atrophy of choroidal circulation on the angiogram” value was “able to visualize the structure of the CNV and the injured choroidal vascular networks”; the Clarity of angiography entry was “poor”; the “Duration: Choroidal neovascularization” value is 0.05 to 0.083 h; the “Duration: Normal Choroidal vasculatures” value lay within 0.05 to 0.083 h. For the same molecule, the Neovascularization complex result in data set [1] was “good”. The “toxic effects on retinal pigmental endothelial cells and outer portion of the retinal tissues” value in data set [9] is “toxic effects”.
